# In patent US20050222146A1, “N-substituted-n-sulfonylaminocyclopropane compounds and pharmaceutical use thereof” (priority 2003, published 2005):
# Assays:
# MMP-1 = target: T1, MMP-1 (Homo sapiens, UniProt P03956); test: MMP-1 inhibitory action, Type I collagen Activity Measurement kit (FITC-labeled collagen type I); format: biochemical; conditions: 37° C. for 3 hr, read-out: Experimental Example 2 IC50 MMP1
# T1 sequence (P03956 100-469): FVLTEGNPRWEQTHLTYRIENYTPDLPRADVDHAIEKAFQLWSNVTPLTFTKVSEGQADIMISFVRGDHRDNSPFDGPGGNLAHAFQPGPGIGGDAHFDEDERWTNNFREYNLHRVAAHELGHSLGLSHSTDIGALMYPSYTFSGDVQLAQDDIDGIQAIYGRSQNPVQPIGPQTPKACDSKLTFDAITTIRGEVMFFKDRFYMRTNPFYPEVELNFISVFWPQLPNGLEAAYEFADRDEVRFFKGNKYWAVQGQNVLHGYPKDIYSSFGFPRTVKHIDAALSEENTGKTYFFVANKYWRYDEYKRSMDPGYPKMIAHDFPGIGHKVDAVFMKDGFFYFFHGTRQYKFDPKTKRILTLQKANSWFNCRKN
# aggrecanase-1 = target: T2, aggrecanase-1 (Homo sapiens, UniProt O75173); test: Aggrecanase-1 inhibitory action, Particle Assay (GAG release from aggrecan-containing polyacrylamide particles); format: biochemical; conditions: 37° C. for 15 hr, read-out: Experimental Example 1 IC50 AG1
# T2 sequence (O75173 213-837): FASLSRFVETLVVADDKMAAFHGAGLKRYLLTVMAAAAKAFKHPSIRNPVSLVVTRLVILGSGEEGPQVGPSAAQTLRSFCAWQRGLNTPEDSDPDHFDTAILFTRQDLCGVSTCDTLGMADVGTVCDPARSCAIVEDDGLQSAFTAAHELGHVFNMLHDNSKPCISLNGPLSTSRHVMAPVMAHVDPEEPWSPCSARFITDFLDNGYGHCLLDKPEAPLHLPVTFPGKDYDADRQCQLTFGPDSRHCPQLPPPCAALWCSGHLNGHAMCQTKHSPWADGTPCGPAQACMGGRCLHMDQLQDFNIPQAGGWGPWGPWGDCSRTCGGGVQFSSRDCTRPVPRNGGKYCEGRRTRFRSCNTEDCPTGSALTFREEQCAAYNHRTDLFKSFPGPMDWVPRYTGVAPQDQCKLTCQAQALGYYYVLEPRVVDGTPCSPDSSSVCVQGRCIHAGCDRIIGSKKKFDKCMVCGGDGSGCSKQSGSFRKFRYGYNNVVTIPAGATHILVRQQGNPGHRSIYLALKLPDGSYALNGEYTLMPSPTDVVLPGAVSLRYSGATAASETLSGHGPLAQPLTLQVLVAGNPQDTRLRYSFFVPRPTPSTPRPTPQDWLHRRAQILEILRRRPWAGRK
# How it was run: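 IC50 (μM) derived from % inhibition, referenced to enzyme-free and inhibitor-free wells, of GAG release read as 1,9-dimethylmethylene blue absorbance at 595 nm (chondroitin sulfate standard). Substrate: aggrecan-bearing polyacrylamide particles, exposed to enzyme plus compound in Tris-HCl for 15 hr at 37 °C.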
Compound,IC50 (MMP-1) [µM],IC50 (aggrecanase-1) [µM]
"O=C(O)[C@@]1(N(CCCNc2nn[nH]n2)S(=O)(=O)c2ccc(-c3ccc(Cl)cc3)cc2)C[C@H]1c1ccccc1 (relative stereo) [Example 1-110, (1R*,2S*)-1-{(4′-chloro-biphenyl-4-sulfonyl)-[3-(2H-tetrazol-5-ylamino)-propyl]-amino}-2-phenyl-cyclopropanecarboxylic acid]",≥ 10,< 1
"COC(=O)c1cn(CCN([C@]2(C(=O)O)C[C@H]2c2ccccc2)S(=O)(=O)c2ccc(-c3ccc(Cl)cc3)cc2)cn1 (relative stereo) [Example 1-112, 1-{2-[((1R*,2S*)-1-carboxy-2-phenyl-cyclopropyl)-(4′-chloro-biphenyl-4-sulfonyl)-amino]-ethyl}-1H-imidazole-4-carboxylic acid methyl ester]",≥ 10,< 1
"CNC(=O)c1cn(CCN([C@]2(C(=O)O)C[C@H]2c2ccccc2)S(=O)(=O)c2ccc(-c3ccc(Cl)cc3)cc2)cn1 (relative stereo) [Example 1-113, (R*,2S*)-1-{(4′-chloro-biphenyl-4-sulfonyl)-[2-(4-methylcarbamoyl-imidazol-1-yl)-ethyl]-amino}-2-phenyl-cyclopropanecarboxylic acid]",≥ 10,< 0.1
"O=C(O)[C@@]1(N(CCO)S(=O)(=O)c2ccc(-c3ccc(Cl)cc3)cc2)C[C@H]1c1cccc(Oc2ccccc2)c1 (relative stereo) [Example 1-114, (1R*,2S*)-1-[(4′-chloro-biphenyl-4-sulfonyl)-(2-hydroxy-ethyl)-amino]-2-(3-phenoxy-phenyl)-cyclopropanecarboxylic acid]",≥ 10,< 1
"O=C(O)[C@]12[C@H](CCN1S(=O)(=O)c1ccc(-c3ccc(Cl)cc3)cc1)[C@H]2c1ccccc1 (relative stereo) [Example 2-02, (1R*, 5R*,6S*)-2-(4′-chlorobiphenyl-4-sulfonyl)-6-phenyl-2-aza-bicyclo[3.1.0]hexane-1-carboxylic acid]",≥ 10,≥ 10
"O=C(O)CN([C@]1(C(=O)O)C[C@H]1c1ccccc1)S(=O)(=O)c1ccc(-c2ccc(Cl)cc2)cc1 [Example 1-2, (1R,2S)-1-[carboxymethyl-(4′-chloro-biphenyl-4-sulfonyl)-amino]-2-phenyl-cyclopropanecarboxylic acid]",≥ 10,< 0.1
O=C(O)CN(C1(C(=O)O)CC1c1cccc(OCc2ccccc2)c1)S(=O)(=O)c1ccc(-c2ccc(Cl)cc2)cc1 (centres unmarked) [Example 1-50],≥ 1,< 1
"O=C(O)C1(N(Cc2noc(=O)[nH]2)S(=O)(=O)c2ccc(-c3ccc(Cl)cc3)cc2)CC1c1ccccc1 (stereo not drawn) [Example 1-64, (R*,2S*)-1-[(4′-chlorobiphenyl-4-sulfonyl)-(5-oxo-4,5-dihydro[1.2.4]oxadiazol-3-ylmethyl)-amino]-2-phenylcyclopropanecarboxylic acid]",≥ 10,< 0.1
"O=C(O)c1cnn(CCN(C2(C(=O)O)CC2c2ccccc2)S(=O)(=O)c2ccc(-c3ccc(Cl)cc3)cc2)c1 (stereo not drawn) [Example 1-79, 1-{2-[(1R*,2S*)-1-carboxy-2-phenyl-cyclopropyl)-(4′-chloro-biphenyl-4-sulfonyl)-amino]-ethyl}-1H-pyrazol-4-carboxylic acid]",≥ 10,< 0.1
"O=C(O)c1cc(CN(C2(C(=O)O)CC2c2ccccc2)S(=O)(=O)c2ccc(-c3ccc(Cl)cc3)cc2)on1 [Example 1-82, 5-{[((R, 2S*-1-carboxy-2-phenyl-cyclopropyl)-(4′-chloro-biphenyl-4-sulfonyl)-amino]-methyl}-isooxazole-3-carboxylic acid]",≥ 10,< 1
"O=C1NS(=O)(=O)N(CCN(C2(C(=O)O)CC2c2ccccc2)S(=O)(=O)c2ccc(-c3ccc(Cl)cc3)cc2)C1=O (stereo not drawn) [Example 1-83, (1R*,2S*)-1-{(4′-chloro-biphenyl-4-sulfonyl)-[2-(1,1,3,4-tetraoxo-llambda*6*-[1,2,5]thiadiazolidin-2-yl)-ethyl]-amino}-2-phenyl-cyclopropanecarboxylic acid]",≥ 10,< 0.1
NS(=O)(=O)NCCN(C1(C(=O)O)CC1c1ccccc1)S(=O)(=O)c1ccc(-c2ccc(Cl)cc2)cc1 (centres unmarked) [Example 1-84],≥ 10,< 1
"O=C(O)c1cccc(CN(C2(C(=O)O)CC2c2cccc(OCCn3ccnc3)c2)S(=O)(=O)c2ccc(-c3ccc(Cl)cc3)cc2)c1 (stereo not drawn) [Example 1-95, 3-{[{(1R*,2S*-1-carboxy-2-[3-(2-imidazol-1-yl-ethoxy)-phenyl]-cyclopropyl}-(4′-chloro-biphenyl-4-sulfonyl)-amino]-methyl}-benzoic acid]",≥ 1,< 0.1
"O=C(O)c1cccc(CN(C2(C(=O)O)CC2c2cccc(Oc3cccnc3)c2)S(=O)(=O)c2ccc(-c3ccc(Cl)cc3)cc2)c1 (stereo not drawn) [Example 1-102, 3-{[{(1R*,2S*-1-carboxy-2-[3-(pyridin-3-yloxy)-phenylcyclopropyl}-(4′-chloro-biphenyl-4-sulfonyl)-amino]-methyl}-benzoic acid]",≥ 10,< 0.1
"O=C(O)C(=O)c1ccc(CN(C2(C(=O)O)CC2c2ccccc2)S(=O)(=O)c2ccc(-c3ccc(Cl)cc3)cc2)cc1 (stereo not drawn) [Example 1-103, (1R*,2S*)-1-[(4′-chloro-biphenyl-4-sulfonyl)-(4-oxalyl-benzyl)-amino]-2-phenyl-cyclopropanecarboxylic acid]",≥ 10,< 0.1

# The next lines start with the values.
IC50 (MMP-1) [µM],IC50 (aggrecanase-1) [µM],Compound
≥ 1,< 1,"CC(C)(O)C(=O)NCCN([C@]1(C(=O)O)C[C@H]1c1ccccc1)S(=O)(=O)c1ccc(-c2ccc(Cl)cc2)cc1 (relative stereo) [Example 1-107, (1R*,2S*)-1-{(4′-chloro-biphenyl-4-sulfonyl)-[2-(2-hydroxy-2-methyl-propionylamino)-ethyl]-amino}-2-phenyl-cyclopropanecarboxylic acid]"
≥ 10,< 1,"O=C(O)c1cccc(CN([C@]2(C(=O)O)C[C@H]2c2cccc(OCCn3cccn3)c2)S(=O)(=O)c2ccc(-c3ccc(Cl)cc3)cc2)c1 (relative stereo) [Example 1-108, 3-{[{(1R*,2S*)-1-carboxy-2-[3-(2-pyrazol-1-yl-ethoxy)-phenyl]-cyclopropyl}-(4′-chloro-biphenyl-4-sulfonyl)-amino]-methyl}-benzoic acid]"
≥ 10,< 0.1,"O=C(O)[C@@]1(N(CCNc2nnn[nH]2)S(=O)(=O)c2ccc(-c3ccc(Cl)cc3)cc2)C[C@H]1c1cccc(Oc2ccccc2)c1 (relative stereo) [Example 1-109, (1R*,2S*)-1-{(4′-chloro-biphenyl-4-sulfonyl)-[2-(1H-tetrazol-5-ylamino)-ethyl]-amino}-2-(3-phenoxy-phenyl)-cyclopropanecarboxylic acid]"
≥ 10,< 1,"O=C(O)c1cccc(CN([C@]2(C(=O)O)C[C@H]2c2ccccc2)S(=O)(=O)N2CCN(c3ccc(Cl)cc3)CC2)c1 (relative stereo) [Example 1-115, 3-({((1R*,2S*)-1-carboxy-2-phenyl-cyclopropyl)-[4-(4-chloro-phenyl)-piperazine-1-sulfonyl]-amino}-methyl)-benzoic acid]"
≥ 10,< 1,"O=C(O)CN(C1(C(=O)O)C[C@H]1Cc1ccccc1)S(=O)(=O)c1ccc(-c2ccc(Cl)cc2)cc1 (stereo in doubt) [Example 1-3, (1S,2R)-2-benzyl-1-[carboxymethyl-(4′-chloro-biphenyl-4-sulfonyl)-amino]-cyclopropanecarboxylic acid]"
≥ 10,< 1,"COc1cccc([C@@H]2CC2(C(=O)O)N(CC(=O)O)S(=O)(=O)c2ccc(-c3ccc(Cl)cc3)cc2)c1 (stereo in doubt) [Example 1-21, (1R*,2S)-1-[carboxymethyl-(4′-chloro-biphenyl-4-sulfonyl)-amino]-2-(3-methoxy-phenyl)-cyclopropanecarboxylic acid]"
≥ 10,< 1,"NC(=O)CN(C1(C(=O)O)C[C@H]1c1ccccc1)S(=O)(=O)c1ccc(-c2ccc(Cl)cc2)cc1 (stereo in doubt) [Example 1-36, (1R*,2S)-1-[carbamoylmethyl-(4′-chloro-biphenyl-4-sulfonyl)-amino]-2-phenyl-cyclopropanecarboxylic acid]"
